Converted amounts (≈) assume the structure as drawn. Read-outs that look alike come from different tables or passages of the source. Numbered stars: 1 amine (or outer) side, 2 acyl side, 3 side chain; on linkers, the order of the positions; unused ones are H or OH. Square brackets hold non-standard residues; d marks the D form. Peptide text beside a SMILES is read from it. X1 = O=C([C@@H]1C[C@@]2(O)c3ccccc3N[C@H]2N1[*:1])[*:2]; X2 = O=C([C@H]1C[C@]2(O)c3ccccc3N[C@@H]2N1[*:1])[*:2]; X3 = O=C([C@@H]1C[C@H](O)CNN1[*:1])[*:2]; dPiz(5R-OH) = O=C(O)[C@H]1C[C@@H](O)CNN1; Lys(N3) = [N-]=[N+]=NCCCC[C@H](N)C(=O)O; NMeV = CN[C@H](C(=O)O)C(C)C; dHiv = CC(C)[C@@H](O)C(=O)O; Hiv = CC(C)[C@H](O)C(=O)O
Experiments:
[1] = system: Streptomyces himastatinicus (ATCC 53653); type: cell-based; conditions: ATCC 53653, 72 h
Method: (§1) Bacillus subtilis subsp. spizizenii (ATCC 6633) and Streptomyces himastatinicus (ATCC 53653) were obtained from the American Type Culture Collection (ATCC). Methicillin-resistant and methicillin-susceptible Staphylococcus aureus (Newman), and vancomycin-resistant (V583) and vancomycin-susceptible (T7) Enterococcus faecalis were obtained from the lab of Dr. Roby P. Bhattacharyya (Massachusetts General Hospital).^6 B. subtilis was grown in brain-heart infusion (BHI) medium at 37° C., S. himastatinicus was grown in tryptone-yeast extract broth (ISP medium 2) at 28° C., E. faecalis was grown in Todd-Hewitt broth, and all other organisms were grown in lysogeny broth (LB) medium at 37° C.
(§2) Minimum inhibitory concentration (MIC) was determined using the broth microdilution method. 20-fold stocks of compound in DMSO were diluted 10-fold in MHB medium and 100 μL of each were added to the first well of a 96-well plate. 50 μL of the first well was then serially diluted through 50 μL MHB medium in wells 2-11. To prepare the bacterial culture, an overnight culture was diluted in MHB until the turbidity matched that of McFarland standard 0.5. Then, the culture was diluted 1:100 and added to wells 1-11, resulting in 2-fold dilutions of antibiotic beginning at 64 μg/mL and a final inoculum of 5×10^5 cfu/mL. 100 μL of MHB medium was added to well 12 as a sterility control, and a row containing no antibiotic was used as a growth control. The plate was incubated at the organism's respective growth temperature overnight (B. subtilis) or 72 h (S. himastatinicus) and the MIC was determined using OD600.
(§3) Minimum inhibitory concentration (MIC) was determined using the broth microdilution method.^7 20-fold (1.28 mg/mL) stocks of compound in dimethylsulfoxide, stored as frozen (−80° C.) 30-μL aliquots, were diluted 10-fold in Mueller Hinton broth (MHB) and a 100-μL sample of each was added to the first well of a 96-well plate. A 50-μL sample of the first well was then serially diluted two-fold through 50-μL NMB medium in wells 2-11. A bacterial culture was prepared from a frozen (−80° C.) stock in the organism's respective growth medium and grown overnight. The culture was then diluted in MHB until the turbidity matched that of McFarland standard 0.5 by measuring the optical density at 600 nm (1×10^8 cfu/mL). Then, the culture was diluted 1:100 and a 50-μL aliquot was added to wells 1-11, resulting in 2-fold dilutions of antibiotic from 64 μg/mL down to 0.0625 μg/mL and a final inoculum of 5×10^5 cfu/mL. A 100-μL aliquot of MHB medium was added to well 12 as a sterility control, and a row containing no antibiotic was used as a growth control. The plate was incubated at the organism's respective growth temperature overnight or 72 h (S. himastatinicus). The MIC was determined by observing the well density by eye and, with the exception of S. himastatinicus which grows in solid colonies in media, was confirmed by measuring the optical density of each well at 600 nm. At least two assays were conducted for each organism on identical lots of compound. No degradation of compound stocks in dimethylsulfoxide was observed by LC-MS analysis after being subjected to multiple freeze-thaw cycles.

[2] = system: Vancomycin-Resistant Enterococcus faecalis (V583); type: cell-based; conditions: Vancomycin-Resistant (V583)
Method: as §1, §2, §3

Gram-positive bacteria = type: cell-based; conditions: relative to (−)-himastatin (1) where a derivative
Method: as §1, §2, §3

[3] = system: Methicillin-Resistant Staphylococcus aureus; type: cell-based; conditions: Methicillin-Resistant
Method: as §1, §2, §3

[4] = system: Bacillus subtilis (ATCC 6633); type: cell-based; conditions: for MIC (μg/mL) B. subtilis: ATCC 6633; for MIC in Bacillus subtilis: text and figure legend
Method: as §1, §2, §3

[5] = system: Methicillin-Sensitive S. aureus (Newman); type: cell-based, Staphylococcus aureus; conditions: Newman
Method: as §1, §2, §3

[6] = system: Vancomycin-Sensitive E. faecalis (T7); type: cell-based, Enterococcus faecalis; conditions: Vancomycin-Sensitive (T7)
Method: as §1, §2, §3

| SMILES | MIC (μg/mL) S. himastatinicus [1] | MIC (μg/mL) VRE faecalis [2] | antibiotic activity (in words) (Gram-positive bacteria) | MIC (μg/mL) MRSA [3] | MIC (μg/mL) B. subtilis [4] | MIC (μg/mL) MSSA [5] | MIC (μg/mL) VSE faecalis [6] | MIC in Bacillus subtilis [4] | MIC in Bacillus subtilis ([4]; listed as TAMRA-himastatin) | antibiotic activity (in words) (Gram-positive bacteria; listed as (−)-15) | antibiotic activity (in words) (Gram-positive bacteria; listed as (−)-19) |
| --- | --- | --- | --- | --- | --- | --- | --- | --- | --- | --- | --- |
| CC(C)C[C@@H]1NC(=O)[C@H]2C[C@@H](O)CNN2C(=O)[C@H](C(C)C)OC(=O)[C@@H](C(C)C)NC(=O)[C@@H]2C[C@@]3(O)c4ccccc4N[C@H]3N2C(=O)[C@@H]([C@H](C)O)NC1=O [(+)-6, Himastatin Monomer, reference compound] (cyclo([Hiv][dPiz(5R-OH)]L[dT][X1][dV])) | >64 µg/mL | >64 µg/mL | inactive | >64 µg/mL | >64 µg/mL | >64 µg/mL | >64 µg/mL | – | – | – | – |
| CC(C)C[C@@H]1NC(=O)[C@H]2C[C@@H](O)CNN2C(=O)[C@H](C(C)C)NC(=O)[C@@H](C(C)C)NC(=O)[C@@H]2C[C@@]3(O)c4ccccc4N[C@H]3N2C(=O)[C@@H]([C@H](C)O)NC1=O [(+)-25, Cyclic Hexapeptide] (cyclo(L[dT][X1][dV]V[dPiz(5R-OH)])) | >64 µg/mL | >64 µg/mL | – | >64 µg/mL | >64 µg/mL | >64 µg/mL | >64 µg/mL | – | – | – | – |
| CC(C)C[C@@H]1NC(=O)[C@H]2C[C@@H](O)CNN2C(=O)[C@H](C(C)C)N(C)C(=O)[C@@H](C(C)C)NC(=O)[C@@H]2C[C@@]3(O)c4ccccc4N[C@H]3N2C(=O)[C@@H]([C@H](C)O)NC1=O [(+)-27, N-Methyl Cyclic Hexapeptide] (cyclo(L[dT][X1][dV][NMeV][dPiz(5R-OH)])) | >64 µg/mL | >64 µg/mL | – | >64 µg/mL | >64 µg/mL | >64 µg/mL | >64 µg/mL | – | – | – | – |
| CC(C)C[C@@H]1NC(=O)[C@H]2CCCN2C(=O)[C@H](C(C)C)OC(=O)[C@@H](C(C)C)NC(=O)[C@@H]2C[C@@]3(O)c4ccccc4N[C@H]3N2C(=O)[C@@H]([C@H](C)O)NC1=O [(+)-29, Proline Cyclic Depsihexapeptide] (cyclo([Hiv][dP]L[dT][X1][dV])) | >64 µg/mL | >64 µg/mL | – | >64 µg/mL | >64 µg/mL | >64 µg/mL | >64 µg/mL | – | – | – | – |
| CC(C)[C@@H]1OC(=O)[C@@H](C(C)C)NC(=O)[C@@H]2C[C@@]3(O)c4ccccc4N[C@H]3N2C(=O)[C@@H]([C@H](C)O)NC(=O)[C@H](CCCCN=[N+]=[N-])NC(=O)[C@H]2C[C@@H](O)CNN2C1=O [(+)-31, Azido Cyclic Depsihexapeptide] (cyclo([Hiv][dPiz(5R-OH)][Lys(N3)][dT][X1][dV])) | >64 µg/mL | >64 µg/mL | – | >64 µg/mL | >64 µg/mL | >64 µg/mL | >64 µg/mL | – | – | – | – |
| CC(C)C[C@H]1NC(=O)[C@@H]2C[C@H](O)CNN2C(=O)[C@@H](C(C)C)OC(=O)[C@H](C(C)C)NC(=O)[C@H]2C[C@]3(O)c4ccccc4N[C@@H]3N2C(=O)[C@H]([C@@H](C)O)NC1=O [(−)-6, ent-himastatin monomer] (cyclo([dL]T[X2]V[dHiv][X3])) | 8 µg/mL (≈ 10.8 µM) | >64 µg/mL | – | >64 µg/mL | >64 µg/mL | >64 µg/mL | >64 µg/mL | – | – | – | – |
| CC(C)C[C@@H]1NC(=O)[C@H]2C[C@@H](O)CNN2C(=O)[C@H](C(C)C)OC(=O)[C@@H](C(C)C)NC(=O)[C@@H]2C[C@@]3(O)c4cc(-c5ccc6c(c5)[C@]5(O)C[C@H]7C(=O)N[C@H](C(C)C)C(=O)O[C@@H](C(C)C)C(=O)N8NC[C@H](O)C[C@@H]8C(=O)N[C@@H](CCCCNC(=O)c8ccc9c(c8)C(=O)OC98c9ccc(N(C)C)cc9Oc9cc(N(C)C)ccc98)C(=O)N[C@H]([C@H](C)O)C(=O)N7[C@@H]5N6)ccc4N[C@H]3N2C(=O)[C@@H]([C@H](C)O)NC1=O [(−)-25, TAMRA Himastatin Heterodimer] | – | – | – | – | – | – | – | 6 µg/mL (≈ 3.14 µM) | ~8 µg/mL (≈ 4.18 µM) | – | – |
| CC(C)C[C@@H]1NC(=O)[C@H]2C[C@@H](O)CNN2C(=O)[C@H](C(C)C)NC(=O)[C@@H](C(C)C)NC(=O)[C@@H]2C[C@@]3(O)c4cc(-c5ccc6c(c5)[C@]5(O)C[C@H]7C(=O)N[C@H](C(C)C)C(=O)N[C@@H](C(C)C)C(=O)N8NC[C@H](O)C[C@@H]8C(=O)N[C@@H](CC(C)C)C(=O)N[C@H]([C@H](C)O)C(=O)N7[C@@H]5N6)ccc4N[C@H]3N2C(=O)[C@@H]([C@H](C)O)NC1=O [(−)-26, Himastatin Lactam Derivative] | >64 µg/mL | 32 µg/mL (≈ 21.6 µM) | modest reduction in antibiotic activity | 32 µg/mL (≈ 21.6 µM) | 8 µg/mL (≈ 5.39 µM) | 16 µg/mL (≈ 10.8 µM) | 16 µg/mL (≈ 10.8 µM) | – | – | decreasing antibiotic activity | – |
| CC(C)C[C@@H]1NC(=O)[C@H]2C[C@@H](O)CNN2C(=O)[C@H](C(C)C)N(C)C(=O)[C@@H](C(C)C)NC(=O)[C@@H]2C[C@@]3(O)c4cc(-c5ccc6c(c5)[C@]5(O)C[C@H]7C(=O)N[C@H](C(C)C)C(=O)N(C)[C@@H](C(C)C)C(=O)N8NC[C@H](O)C[C@@H]8C(=O)N[C@@H](CC(C)C)C(=O)N[C@H]([C@H](C)O)C(=O)N7[C@@H]5N6)ccc4N[C@H]3N2C(=O)[C@@H]([C@H](C)O)NC1=O [(−)-28, Himastatin N-Methyl Lactam Derivative] | >64 µg/mL | >64 µg/mL | decreasing antibiotic activity | >64 µg/mL | >64 µg/mL | >64 µg/mL | >64 µg/mL | – | – | – | – |
| CC(C)C[C@@H]1NC(=O)[C@H]2CCCN2C(=O)[C@H](C(C)C)OC(=O)[C@@H](C(C)C)NC(=O)[C@@H]2C[C@@]3(O)c4cc(-c5ccc6c(c5)[C@]5(O)C[C@H]7C(=O)N[C@H](C(C)C)C(=O)O[C@@H](C(C)C)C(=O)N8CCC[C@@H]8C(=O)N[C@@H](CC(C)C)C(=O)N[C@H]([C@H](C)O)C(=O)N7[C@@H]5N6)ccc4N[C@H]3N2C(=O)[C@@H]([C@H](C)O)NC1=O [(−)-30, Himastatin Proline Derivative] | >64 µg/mL | >64 µg/mL | complete abolishment of antibiotic activity | >64 µg/mL | >64 µg/mL | >64 µg/mL | >64 µg/mL | – | – | – | antibiotic activity was completely abolished |
